# Source: PubChem BioAssay (NCI)
#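 Following 48 hours of exposure in 96-well plates, responses at five concentrations were used to interpolate endpoints linearly. TGI is the concentration that stops growth completely.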
# Assays:
# Experiment in all cases: DTP human tumour cell line panel, 48 h
# EKVX NSCLC = system: EKVX NSCLC
# IGROV1 ovarian = system: IGROV1 ovarian
# MALME-3M melanoma = system: MALME-3M melanoma
# MDA-MB-231 breast = system: MDA-MB-231 breast
# NCI-H23 lung = system: NCI-H23 lung
# SNB-19 CNS = system: SNB-19 CNS
# SK-MEL-2 melanoma = system: SK-MEL-2 melanoma
# NCI-H226 lung = system: NCI-H226 lung
# HCC-2998 colon = system: HCC-2998 colon
smiles,measurement,setting,value
O=C(CN1CCCCC1)c1ccc2[nH]c(=O)oc2c1,TGI,EKVX NSCLC,> 100 µM
same,TGI,IGROV1 ovarian,> 100 µM
same,TGI,MALME-3M melanoma,> 100 µM
same,TGI,MDA-MB-231 breast,> 100 µM
same,TGI,NCI-H23 lung,> 100 µM
same,TGI,SNB-19 CNS,> 100 µM
same,TGI,SK-MEL-2 melanoma,> 100 µM
same,TGI,NCI-H226 lung,> 100 µM
COc1cc(/C=C2\CC3C4CC=C5C[C@@H](O)CC[C@]5(C)C4CC[C@]3(C)\C2=N\O)cc(OC)c1OC (stereo not given in full),TGI,EKVX NSCLC,> 100 µM
same,TGI,IGROV1 ovarian,> 100 µM
same,TGI,HCC-2998 colon,45 µM
same,TGI,MALME-3M melanoma,50 µM
same,TGI,MDA-MB-231 breast,74 µM
same,TGI,NCI-H23 lung,55.5 µM
same,TGI,SNB-19 CNS,> 100 µM
same,TGI,SK-MEL-2 melanoma,17.1 µM
same,TGI,NCI-H226 lung,60.9 µM
CC(=O)Oc1ccc2c(c1)O/C(=C\c1ccc(N(C)C)cc1)C2=O,TGI,EKVX NSCLC,> 100 µM
same,TGI,IGROV1 ovarian,> 100 µM
same,TGI,HCC-2998 colon,> 100 µM
same,TGI,MDA-MB-231 breast,> 100 µM
same,TGI,NCI-H23 lung,> 100 µM
same,TGI,SNB-19 CNS,> 100 µM
same,TGI,NCI-H226 lung,> 100 µM
CCOC(=O)c1nc2ccccc2nc1Nc1cc(OC)c(OC)c(OC)c1,TGI,EKVX NSCLC,> 100 µM
same,TGI,IGROV1 ovarian,> 100 µM
same,TGI,HCC-2998 colon,> 100 µM
same,TGI,MALME-3M melanoma,> 100 µM
same,TGI,MDA-MB-231 breast,> 100 µM
same,TGI,NCI-H23 lung,> 100 µM
same,TGI,SNB-19 CNS,> 100 µM
same,TGI,SK-MEL-2 melanoma,> 100 µM
CCCSc1ccc2[nH]c(N3C(=O)/C(=C/c4ccc(O)c(OC)c4)N=C3c3ccccc3)cc2c1,TGI,EKVX NSCLC,67.4 µM
same,TGI,IGROV1 ovarian,> 100 µM
same,TGI,HCC-2998 colon,14.1 µM
same,TGI,MALME-3M melanoma,84 µM
same,TGI,NCI-H23 lung,61.5 µM
same,TGI,SNB-19 CNS,> 100 µM
same,TGI,SK-MEL-2 melanoma,2.73 µM
CC(Nc1cccc(Cl)c1)c1ccncc1 (stereo not given),TGI,EKVX NSCLC,> 100 µM
same,TGI,IGROV1 ovarian,> 100 µM
same,TGI,MALME-3M melanoma,> 100 µM
same,TGI,MDA-MB-231 breast,> 100 µM
same,TGI,NCI-H23 lung,> 100 µM
same,TGI,SNB-19 CNS,> 100 µM
same,TGI,SK-MEL-2 melanoma,> 100 µM
same,TGI,NCI-H226 lung,> 100 µM
O=S(=O)(O)c1cc(O)c(N=NC2S(=O)(=O)OCCOS2(=O)=O)c2ccccc12,TGI,EKVX NSCLC,> 100 µM
same,TGI,IGROV1 ovarian,> 100 µM
same,TGI,HCC-2998 colon,> 100 µM
same,TGI,MALME-3M melanoma,> 100 µM
same,TGI,MDA-MB-231 breast,> 100 µM
same,TGI,NCI-H23 lung,> 100 µM
same,TGI,SNB-19 CNS,> 100 µM
same,TGI,SK-MEL-2 melanoma,> 100 µM
same,TGI,NCI-H226 lung,> 100 µM
COC(=O)C12C(=O)CC3CCC1C32C(=O)OC (stereo not given),TGI,EKVX NSCLC,> 100 µM
same,TGI,IGROV1 ovarian,> 100 µM
same,TGI,HCC-2998 colon,> 100 µM
same,TGI,MALME-3M melanoma,> 100 µM
same,TGI,MDA-MB-231 breast,> 100 µM
same,TGI,NCI-H23 lung,> 100 µM
same,TGI,SNB-19 CNS,> 100 µM
same,TGI,SK-MEL-2 melanoma,> 100 µM
same,TGI,NCI-H226 lung,> 100 µM
COc1cc(OC)c(-n2[nH]c(=O)n(C)c2=O)c(OC)c1,TGI,EKVX NSCLC,> 100 µM
same,TGI,IGROV1 ovarian,> 100 µM
same,TGI,HCC-2998 colon,> 100 µM
same,TGI,MALME-3M melanoma,> 100 µM
same,TGI,MDA-MB-231 breast,> 100 µM
same,TGI,NCI-H23 lung,> 100 µM
same,TGI,SNB-19 CNS,> 100 µM
same,TGI,SK-MEL-2 melanoma,> 100 µM
same,TGI,NCI-H226 lung,> 100 µM
CCOC(=O)c1nc(SC)sc1NC(=O)c1ccc(OC)cc1,TGI,EKVX NSCLC,> 100 µM
same,TGI,IGROV1 ovarian,> 100 µM
same,TGI,HCC-2998 colon,> 100 µM
same,TGI,MALME-3M melanoma,88.8 µM
same,TGI,MDA-MB-231 breast,> 100 µM
same,TGI,NCI-H23 lung,> 100 µM
same,TGI,SNB-19 CNS,> 100 µM
same,TGI,SK-MEL-2 melanoma,> 100 µM
same,TGI,NCI-H226 lung,> 100 µM
Cc1cccc(C)c1NC(=S)N/C=C(\C#N)C(N)=O,TGI,EKVX NSCLC,> 100 µM
same,TGI,IGROV1 ovarian,> 100 µM
same,TGI,MALME-3M melanoma,> 100 µM
same,TGI,MDA-MB-231 breast,> 100 µM
same,TGI,NCI-H23 lung,> 100 µM
same,TGI,SNB-19 CNS,> 100 µM
same,TGI,SK-MEL-2 melanoma,> 100 µM
same,TGI,NCI-H226 lung,> 100 µM
CC1=C[C@H](C[C@]2(C)c3c(c4c(C)cccc4oc3=O)O[C@@H]2C)OC1=O,TGI,EKVX NSCLC,> 100 µM
same,TGI,IGROV1 ovarian,> 100 µM
same,TGI,HCC-2998 colon,> 100 µM
same,TGI,MALME-3M melanoma,> 100 µM
same,TGI,MDA-MB-231 breast,> 100 µM
same,TGI,NCI-H23 lung,> 100 µM
same,TGI,SNB-19 CNS,> 100 µM
same,TGI,SK-MEL-2 melanoma,> 100 µM
same,TGI,NCI-H226 lung,> 100 µM
Cc1cc(C)c2c(-c3ccccc3)cc(=O)[nH]c2c1,TGI,EKVX NSCLC,> 100 µM
same,TGI,IGROV1 ovarian,> 100 µM
same,TGI,HCC-2998 colon,> 100 µM
same,TGI,MALME-3M melanoma,> 100 µM
same,TGI,MDA-MB-231 breast,> 100 µM
same,TGI,NCI-H23 lung,> 100 µM
same,TGI,SK-MEL-2 melanoma,> 100 µM
same,TGI,NCI-H226 lung,> 100 µM
COC(=O)[C@H](Cc1ccccc1)NC(=O)N(CCN(CCC#N)C(=O)N[C@H](C(=O)OC)C(C)C)c1ccccc1,TGI,EKVX NSCLC,> 100 µM
same,TGI,IGROV1 ovarian,> 100 µM
same,TGI,HCC-2998 colon,> 100 µM
same,TGI,MALME-3M melanoma,> 100 µM
same,TGI,MDA-MB-231 breast,> 100 µM
same,TGI,NCI-H23 lung,> 100 µM
same,TGI,SNB-19 CNS,> 100 µM
same,TGI,SK-MEL-2 melanoma,> 100 µM
same,TGI,NCI-H226 lung,> 100 µM
COc1cc2ncnc(Nc3cccc(Br)c3)c2cc1OC,TGI,EKVX NSCLC,31.9 µM
same,TGI,IGROV1 ovarian,29.6 µM
same,TGI,HCC-2998 colon,10.2 µM
same,TGI,MALME-3M melanoma,32.2 µM
same,TGI,MDA-MB-231 breast,21.5 µM
same,TGI,NCI-H23 lung,28.7 µM
same,TGI,SNB-19 CNS,> 77.4 µM
same,TGI,SK-MEL-2 melanoma,12.9 µM
same,TGI,NCI-H226 lung,18.5 µM
COC(=O)C1=C(C(=O)OC)C23CC4CCC2(C(=O)C1O3)C4(C)C (stereo not given),TGI,IGROV1 ovarian,> 100 µM
same,TGI,HCC-2998 colon,> 100 µM
same,TGI,MALME-3M melanoma,> 100 µM
same,TGI,NCI-H23 lung,> 100 µM
same,TGI,SNB-19 CNS,> 100 µM
same,TGI,SK-MEL-2 melanoma,> 100 µM
same,TGI,NCI-H226 lung,> 100 µM
CCCCCCCCCCCCCOCCOCCOCCCCC(O)CCCCCCCCCC1=C[C@H](C)OC1=O (stereo not given in full),TGI,IGROV1 ovarian,37.6 µM
same,TGI,HCC-2998 colon,74.4 µM
same,TGI,MDA-MB-231 breast,50.5 µM
same,TGI,NCI-H23 lung,60 µM
same,TGI,SNB-19 CNS,43.7 µM
same,TGI,SK-MEL-2 melanoma,63 µM
same,TGI,NCI-H226 lung,38 µM
CCN(CC)P(=O)(c1ccc2c(c1)OCCOCCOCCOCCO2)N(CC)CC,TGI,EKVX NSCLC,> 100 µM
same,TGI,IGROV1 ovarian,> 100 µM
same,TGI,HCC-2998 colon,> 100 µM
same,TGI,MALME-3M melanoma,> 100 µM
same,TGI,MDA-MB-231 breast,> 100 µM
same,TGI,NCI-H23 lung,> 100 µM
same,TGI,SNB-19 CNS,> 100 µM
same,TGI,NCI-H226 lung,> 100 µM
Fc1ccc(F)c(C=NC23CC4CC(CC(C4)C2)C3)c1,TGI,EKVX NSCLC,> 10 µM
same,TGI,IGROV1 ovarian,> 10 µM
same,TGI,HCC-2998 colon,> 10 µM
same,TGI,MALME-3M melanoma,> 10 µM
same,TGI,NCI-H23 lung,> 10 µM
same,TGI,SNB-19 CNS,> 10 µM
same,TGI,SK-MEL-2 melanoma,> 10 µM
same,TGI,NCI-H226 lung,> 10 µM
OC1C2CN3CCN(C2)CC1(c1ccccc1)C3 (stereo not given),TGI,EKVX NSCLC,> 100 µM
same,TGI,IGROV1 ovarian,> 100 µM
same,TGI,MALME-3M melanoma,> 100 µM
same,TGI,MDA-MB-231 breast,> 100 µM
same,TGI,NCI-H23 lung,> 100 µM
same,TGI,SNB-19 CNS,> 100 µM
same,TGI,SK-MEL-2 melanoma,> 100 µM
same,TGI,NCI-H226 lung,> 100 µM
Cc1cccc(-c2cc(=O)c3cccnc3[nH]2)c1,TGI,EKVX NSCLC,87.2 µM
same,TGI,IGROV1 ovarian,> 100 µM
same,TGI,HCC-2998 colon,13.2 µM
same,TGI,MDA-MB-231 breast,> 100 µM
same,TGI,NCI-H23 lung,> 100 µM
same,TGI,SNB-19 CNS,> 100 µM
same,TGI,NCI-H226 lung,> 100 µM
O=c1[nH]c2c(C(F)(F)F)c(Cl)c(-c3ccccc3)nc2o1,TGI,EKVX NSCLC,41.6 µM
same,TGI,IGROV1 ovarian,> 100 µM
same,TGI,HCC-2998 colon,> 100 µM
same,TGI,MDA-MB-231 breast,65.2 µM
same,TGI,NCI-H23 lung,52.1 µM
same,TGI,SNB-19 CNS,> 100 µM
same,TGI,SK-MEL-2 melanoma,52.7 µM
same,TGI,NCI-H226 lung,> 100 µM
O=[N+]([O-])C(/C(Cl)=C(/Cl)N1CCOCC1)=C1\Nc2ccccc2O1,TGI,EKVX NSCLC,> 100 µM
same,TGI,HCC-2998 colon,> 100 µM
same,TGI,MALME-3M melanoma,> 100 µM
same,TGI,MDA-MB-231 breast,> 100 µM
same,TGI,NCI-H23 lung,> 100 µM
same,TGI,SNB-19 CNS,> 100 µM
same,TGI,SK-MEL-2 melanoma,> 100 µM
same,TGI,NCI-H226 lung,> 100 µM
COC(=O)C12CCCN1CCC2,TGI,EKVX NSCLC,> 100 µM
same,TGI,HCC-2998 colon,> 100 µM
same,TGI,MALME-3M melanoma,> 100 µM
same,TGI,MDA-MB-231 breast,> 100 µM
same,TGI,NCI-H23 lung,> 100 µM
same,TGI,SNB-19 CNS,> 100 µM
same,TGI,SK-MEL-2 melanoma,> 100 µM
same,TGI,NCI-H226 lung,> 100 µM
